Results on six molecules are retold here after patent publication US7109160B1, “Peptides containing the motif IGD and their use as cell migration modulators” (University of Dundee, priority 1997, dated 2006).

One may read the inhibition as the share of the control response that was lost under treatment. For orientation: % inhibition means the drop in the measured response relative to a control, in per cent.

Test [1] relates to human skin fibroblasts (SK319 and FSF44). In words: Inhibitors of early and late aspects of IGDS activity (pre-incubation protocols, collagen gel assay). In kind it is cell-based. More on the design: key to Inhibitory activity: early events / Inhibitory activity: late events: yes(+); no(−). The settings on record: for inhibition at 10 µg/mL: Homo sapiens, Skin fibroblast; for effect on IGDS-induced cell migration (late events), in words / effect on initial IGDS signalling (early events), in words: Table 3. The procedure:
(§1) Migration Assays. In the collagen gel assay, pre-formed 2 ml gels were overlaid with 1 ml of serum-free MEM (controls) or serum-free MEM containing the requisite concentration of effector molecule to give the desired final concentration. Trypsinised fibroblasts were suspended in serum-free MEM to give an inoculum containing 2×10^5 cells/ml and 1 ml of this was plated onto replicate control and test gels.
The specific effects of potential inhibitory molecules on such early and late events were examined by using the following experimental protocol: (a) pre-incubating cells with IGDS (SEQ ID NO 2) and inhibitor and then assaying these treated cells in the absence of both IGDS (SEQ ID NO 2) and inhibitor (note: this protocol provides data concerning the effects of inhibitor on the early events mediating IGDS (SEQ ID NO 2) activity), (b) pre-incubating cells with neither IGDS (SEQ ID NO 2) nor inhibitor and assaying them in the presence of both (the effects of inhibitor on both early and late events), (c) pre-incubating cells with IGDS (SEQ ID NO 2) alone and then assaying them in the presence of inhibitor only (the effects of inhibitor on late events), and finally, (d) pre-incubating cells with inhibitor alone and then assaying them in the presence of IGDS (SEQ ID NO 2) to provide control information regarding possibly persistent effects of inhibitor which would confound data interpretation. Data presented in Table IA are concerned with the effects of the synthetic RGDS (SEQ ID NO 6) and RGES (SEQ ID NO 5).

The test system is the same in test [2]. In words: Native collagen gel migration assay. Format: cell-based. The settings on record: for concentration at which significant bioactivity (migration stimulation) is first manifest: collagen gel assay, FIG. 1A; for effect on cell migration into native type I collagen gels: human dermal fibroblasts, 4-day incubation, FIG. 1. The procedure: Assays were performed as described in Materials and Methods in Example 1. Results are normalised by expressing them as “relative stimulation” of migration, this being calculated by dividing the percentage of cells in the gel matrix for each experimental point by the control value obtained in that particular experiment. Data are presented as the mean ±SD of five experiments. For clarity, the shaded area indicates the spread of standard deviations for data points not plotted with error bars. Upper panel: results obtained with the indicated synthetic peptides. Lower panel: results obtained with native fibronectin (FN), and its cell-binding (Cell-BD) and gelatin-binding (Gel-BD) domains.
(§2) Cells. Experiments were performed with two lines of human skin fibroblasts (SK319 and FSF44, between passage 10–18) shown to be free of mycoplasmal contamination by staining with Hoechst 33256. Identical results were obtained with both lines and these cells are consequently not individually identified in the Figures. Stock cultures were maintained in Eagle's Minimal Essential (MEM), as previously described^7.
as §1

Test [3] shares this test system. Description: Transmembrane migration assay (membranes coated with native type I collagen or gelatin). In kind it is cell-based. The following applies: FIG. 2. The procedure: Assays were performed as described in Materials and Methods in Example 1. Results from five experiments are presented as mean ±SD. Shaded area indicates the spread of standard deviations for data points not plotted with error bars. Panel A: results obtained with IGDS (SEQ ID NO 2) and the gelatin-binding domain (Gel-BD) on membranes coated with native collagen and gelatin. Panel B: results obtained with RGDS (SEQ ID NO 6), native fibronectin (FN), and its cell-binding domain (Cell-BD).
as §2
Polycarbonate membranes used in the transmembrane assay were immersed in an aqueous solution containing 10 μg/ml of either native type I collagen or heat-denatured type I collagen (gelatin) overnight at 37° C. and then air-dried. Assays were performed as previously described^7.

The test system is the same in test [4]. In words: Collagen gel assay with combinations of peptides (co-incubation). In kind it is cell-based. The following applies: FIG. 3B, 3C. How it is done:
The collagen gel assay was performed in the presence of various combinations of the indicated peptides and the percentage of cells present within the gel matrix measured after a four-day incubation period. Data are expressed as mean ±SD obtained in three experiments. Panel A: combinations of the gelatin-binding domain (Gel-BD) and IGDS (SEQ ID NO 2); Panel B: combinations of IGDS (SEQ ID NO 2) and RGDS (SEQ ID NO 6); Panel C: combinations of IGDS (SEQ ID NO 2) and the cell-binding domain (Cell-BD).
as §1
The possible mechanistic relationship between IGDS (SEQ ID NO 2) and the gelatin-binding domain in which it is contained was further examined by co-incubating cells with suboptimal concentrations of each.
Possible mechanistic interactions between IGDS (SEQ ID NO 2) and RGDS (SEQ ID NO 6) were studied in similar co-incubation experiments.

A further test relates to chick yolk sac membrane. In words: Chick yolk sac membrane angiogenesis assay. In kind it is in vivo. The following applies: for Positive responses (%) / Positive responses (positive/total): 3000 ng/pellet, assessed after 24 hr; for angiogenic response in the chick yolk sac membrane, in words: in vivo. From the text:
Dried methylcellulose pellets containing the test samples and control pellets (lacking the test samples) were placed on the yolk sac membrane of 6-day chick embryos, as described in Materials and Methods in Example 1. The elicited reaction was checked after six hours and assessed after 24 hr by observation of living embryos with a stereomicroscope. […] After assessment at 24 hr, selected membranes were fixed in 2.5% EM grade glutaraldehyde in 0.2 M phosphate buffer, pH 7.4. These preparations were then stained with 1% toluidine blue and photographed using a Leica DM LB microscope. […] Bar=250 μm.
Chick yolk sac membrane angiogenesis assay. The assay was performed essentially as described by Gush et al (1990) J. Med. Engineer. Tech. 14, 205–209. Accordingly, four-day-old fertilised eggs were cracked in a tumbler, covered with a Petri dish and incubated at 37° C. Two days later dried methylcellulose pellets containing the test samples and control pellets (lacking the test samples) were placed on the yolk sac membrane. The elicited angiogenic reaction was assessed after 24 hr by observation of living embryos with a stereomicroscope. Selected membranes were fixed in 2.5% EM grade glutaraldehyde in 0.2 M phosphate buffer (pH 7.4), dissected, stained with 1% toluidine blue and mounted on glass slides for photomicroscopy.

Setting [5] is: Genistein 10 μg/ml, PD98059 2.0 μM, PKA inhib 5 nM.
Where [6] appears, read: Genistein 10 μg/ml, PD98059 2.0 μM, PKA inhib 5 nM, no pre-incubation, IGDS and inhibitor in assay (early and late events).
Setting [7] is: Genistein 10 μg/ml, PD98059 2.0 μM, PKA inhib 5 nM, pre-incubation with IGDS alone, inhibitor only in assay (late events).
Where [8] appears, read: Genistein 10 μg/ml, PD98059 2.0 μM, PKA inhib 5 nM, pre-incubation with IGDS and inhibitor, neither in assay (early events).
[9] abbreviates: peptide 10.0 μ molar, no pre-incubation, IGDS and peptide in assay (early and late events).
Where [10] appears, read: peptide 10.0 μ molar, pre-incubation with IGDS alone, peptide only in assay (late events).
[11] abbreviates: peptide 10.0 μ molar, pre-incubation with IGDS and peptide, neither in assay (early events).

With `O=c1c(-c2ccc(O)cc2)coc2cc(O)cc(O)c12` [Genistein], in test [1] (setting [5]), the “Inhibitory activity: early events” value is “early events: +” and the “Inhibitory activity: late events” value is listed as “late events: −”. In test [1] (setting [6]), this molecule came in with an inhibition at 10 µg/mL of 94.1 ± 6.5%. Also, the inhibition at 10 µg/mL in test [1] (setting [7]) turned out to be 0.9 ± 2.9%. Further, in test [1] (setting [8]), the inhibition at 10 µg/mL amounted to 96.7 ± 4%. Moreover, in test [1], the “effect on IGDS-induced cell migration (late events), in words” value (from here on “effect on IGDS-induced cell migration”) was “did not affect” and the “effect on initial IGDS signalling (early events), in words” value (“effect on initial IGDS signalling” for short) is “selectively blocked”.

For the molecule `COc1cccc(-c2cc(=O)c3ccccc3o2)c1N` [PD98059], the “Inhibitory activity: early events” value in test [1] (setting [5]) was “early events: +”. Besides, in test [1] (setting [5]), the “Inhibitory activity: late events” value is on record as “late events: +”. Moreover, the “% inhibition” value in test [1] (setting [6]) is 99.8 ± 3.8%; in test [1] (setting [7]), 39.4 ± 5.0%; in test [1] (setting [8]), 90.5 ± 3.1%. Further, the “effect on IGDS-induced cell migration” value in test [1] is given as “blocked”. Further, in test [1], the “effect on initial IGDS signalling” value is “blocked”.

For the molecule “Ile-Gly-Asp (IGD; listed as Homo sapiens)”, in test [2], the “concentration at which significant bioactivity (migration stimulation) is first manifest” value was in the range of 10 to 100 µM and the “effect on cell migration into native type I collagen gels” value was “stimulated cell migration”.

For “Ile-Gly-Asp-Gin (IGDQ; listed as Homo sapiens)”, in test [2], the “concentration at which significant bioactivity (migration stimulation) is first manifest” value stood at 0.1 µM and the “effect on cell migration into native type I collagen gels” value was “stimulated cell migration”.

For the molecule “RGDS: structurally related RGDS tetrapeptide (synthetic peptide) (Peptide related to IGDS)”, in test [3] (gelatin (heat-denatured type I collagen)-coated membranes), the “effect on cell migration through gelatin-coated membranes” value is “inactive”. In addition, the “effect on cell migration through membranes coated with native collagen” value in test [3] (native type I collagen-coated membranes) is “inactive”. In test [4], the “concentrations required for inhibition of IGDS activity” value was “pmolar” and the “effect on the migration stimulating activity of IGDS (co-incubation)” value is on record as “effectively inhibited”. In test [1], the “effect on IGDS-induced cell migration” value is reported as “inhibited” and the “effect on initial IGDS signalling” value is listed as “inhibited”. Further, in test [1] (peptide 10.0 μ molar), the “Inhibitory activity: early events” value is on record as “early events: +” and the “Inhibitory activity: late events” value is recorded as “late events: +”. Further, in test [1] (setting [9]), the “% inhibition” value turned out to be 92.3 ± 2.1%. In test [1] (setting [10]), the “% inhibition” value was found to be 96.5 ± 5.7%. The “% inhibition” value in test [1] (setting [11]) is listed as 96.2 ± 4.8%. Moreover, in the test with chick yolk sac membrane, the “Positive responses (%)” value is “(9) %”; the “Positive responses (positive/total)” value was 1/11; the “angiogenic response in the chick yolk sac membrane, in words” value was “inactive”. In test [2], the “effect on cell migration into native type I collagen gels” value is “devoid of migration stimulating activity”.

Consider “RGES: RGES synthetic peptide (Peptide related to IGES)”, for which, in test [4], the “effect on the migration stimulating activity of IGDS (co-incubation)” value was “no effect”. Moreover, in test [1], the “effect on IGDS-induced cell migration” value is “inactive” and the “effect on initial IGDS signalling” value is “inactive”. In addition, in test [1] (peptide 10.0 μ molar), the “Inhibitory activity: early events” value is on record as “early events: −” and the “Inhibitory activity: late events” value was “late events: −”. Moreover, the “% inhibition” value in test [1] (setting [9]) is 1.2 ± 2.1%. Further, the “% inhibition” value in test [1] (setting [10]) turned out to be 0.3 ± 2.8%. The “% inhibition” value in test [1] (setting [11]) was −1.0 ± 3.0%. In the test with chick yolk sac membrane, the “Positive responses (%)” value was “(10) %”; the “Positive responses (positive/total)” value is listed as 1/10; the “angiogenic response in the chick yolk sac membrane, in words” value is “inactive”.
